Measurements from patent US20220370416A1, “COMPOUNDS AND METHODS FOR TARGETED DEGRADATION OF KRAS” (Arvinas Operations, Inc., priority 2020, published 2022).

Assays:
[1] = molecular target: T1, HiBit-KRAS^G12C (Homo sapiens, UniProt P01116, G12C); test: HiBit degradation assay in SW1573 HiBit-KRas^G12C cells; type: cell-based; parameters: expressed in transfected cells; host or cells: SW1573 (clone E6), modified pcDNA3.1 vector, TK promoter; conditions: 24 hours; for DC50: read-out: KRas^G12C-HIBit (SW1573; 0.1% DMSO) DC50*
T1 sequence (P01116 1-186 isoform P01116-2 G12C limits assumed): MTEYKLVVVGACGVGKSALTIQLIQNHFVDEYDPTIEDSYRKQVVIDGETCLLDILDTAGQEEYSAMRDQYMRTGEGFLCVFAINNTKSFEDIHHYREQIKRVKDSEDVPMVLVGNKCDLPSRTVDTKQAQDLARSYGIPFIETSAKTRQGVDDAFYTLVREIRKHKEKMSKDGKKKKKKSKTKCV
In short: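 HiBit-KRAS G12C degradation was measured after a 24 h compound exposure (titrated 10 μM–20 nM) in engineered SW1573 cells. Lytic HiBit luminescence, expressed relative to DMSO controls, yielded DC50 and Dmax from 4-parameter fits. Concentrations causing ≥50% loss in alamar blue viability were omitted as cytotoxic.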

[2] = molecular target: T1, HiBit-KRAS^G12C; test: HiBit degradation assay in MiaPaCa-2 HiBit-KRas^G12C cells; type: cell-based; conditions: 24 hours; for Dmax: maximum degradation
In short: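 DC50 and Dmax come from 4-parameter fits of DMSO-normalized HiBit luminescence after 24 hours' exposure at 37° C to 10 μM–20 nM compound in 0.1% or 0.5% DMSO. Cells: MiaPaCa-2 carrying one endogenously HiBit-tagged KRAS^G12C allele; concentrations causing ≥50% […] viability loss (alamar blue) excluded.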

[3] = SW1573, SW1573 HiBit-KRas^G12C, 0.1% DMSO, read-out: KRas^G12C-HiBit (SW1573; 0.1% DMSO) Dmax**
[4] = SW1573, SW1573 HiBit-KRas^G12C, 0.5% DMSO, read-out: KRas^G12C-HiBiT (SW1573; 0.5% DMSO) Dmax**
[5] = SW1573 HiBit-KRas^G12C, 0.1% DMSO
[6] = MIA PaCa-2, MiaPaCa-2 HiBit-KRas^G12C cells, 0.1% DMSO, read-out: KRas^G12C-HiBiT (MiaPaCa; 0.1% DMSO) DMax
[7] = MIA PaCa-2, MiaPaCa-2 HiBit-KRas^G12C cells, 0.5% DMSO, read-out: KRas^G12C-HiBiT (MiaPaCa; 0.5% DMSO) DMax
[8] = read-out: KRas^G12C-HiBiT (MiaPaCa; 0.1% DMSO) IC50, MiaPaCa-2 HiBit-KRas^G12C cells, 0.1% DMSO

## C=CC(=O)N1CCN(c2nc(OCCN3CCC(OCCOCC(=O)N[C@H](C(=O)N4C[C@H](O)C[C@H]4C(=O)N[C@@H](C)c4ccc(-c5scnc5C)cc4)C(C)(C)C)CC3)nc3c(F)c(-c4cc(O)cc5ccccc45)c(Cl)cc23)C[C@@H]1CC#N [Compound 32, (2S,4R)-1-[(2S)-2-{2-[2-({1-[2-({6-chloro-4-[(3S)-3-(cyanomethyl)-4-(prop-2-enoyl)piperazin-1-yl]-8-fluoro-7-(3-hydroxynaphthalen-1-yl)quinazolin-2-yl}oxy)ethyl]piperidin-4-yl}oxy)ethoxy]acetamido}-3,3-dimethylbutanoyl]-4-hydroxy-N-[(1S)-1-[4-(4-methyl-1,3-thiazol-5-yl)phenyl]ethyl]pyrrolidine-2-carboxamide]
[1]; [3]
  Dmax: 35 to 70%
[1]; [4]
  Dmax: > 70%
[1]; [5]
  DC50: 100 to 1000 nM
[2]; [6]
  Dmax: 35 to 70%
[2]; [7]
  Dmax: > 70%

## C=CC(=O)N1CCN(c2nc(O[C@H](C)CN3CCC(OCCOCC(=O)N[C@H](C(=O)N4C[C@H](O)C[C@H]4C(=O)N[C@@H](C)c4ccc(-c5scnc5C)cc4)C(C)(C)C)CC3)nc3c(F)c(-c4cc(O)cc5ccccc45)c(Cl)cc23)C[C@@H]1CC#N [Compound 33, (2S,4R)-1-[(2S)-2-{2-[2-({1-[(2R)-2-({6-chloro-4-[(3S)-3-(cyanomethyl)-4-(prop-2-enoyl)piperazin-1-yl]-8-fluoro-7-(3-hydroxynaphthalen-1-yl)quinazolin-2-yl}oxy)propyl]piperidin-4-yl}oxy)ethoxy]acetamido}-3,3-dimethylbutanoyl]-4-hydroxy-N-[(1S)-1-[4-(4-methyl-1,3-thiazol-5-yl)phenyl]ethyl]pyrrolidine-2-carboxamide]
[1]; [3]
  Dmax: 35 to 70%
[1]; [4]
  Dmax: 35 to 70%
[1]; [5]
  DC50: 100 to 1000 nM
[2]; [6]
  Dmax: 35 to 70%
[2]; [7]
  Dmax: 35 to 70%

## C=CC(=O)N1CCN(c2nc(O[C@H](C)CN3CCC(C(=O)N[C@H](C(=O)N4C[C@H](O)C[C@H]4C(=O)N[C@@H](C)c4ccc(-c5scnc5C)cc4)C(C)(C)C)CC3)nc3c(F)c(-c4cc(O)cc5ccccc45)c(Cl)cc23)CC1 [Compound 34, 1-[(2R)-2-{[6-chloro-8-fluoro-7-(3-hydroxynaphthalen-1-yl)-4-[4-(prop-2-enoyl)piperazin-1-yl]quinazolin-2-yl]oxy}propyl]-N-[(2S)-1-[(2S,4R)-4-hydroxy-2-{[(1S)-1-[4-(4-methyl-1,3-thiazol-5-yl)phenyl]ethyl]carbamoyl}pyrrolidin-1-yl]-3,3-dimethyl-1-oxobutan-2-yl]piperidine-4-carboxamide]
[1]; [3]
  Dmax: < 35%
[1]; [5]
  DC50: 100 to 1000 nM
[2]; [8]
  DC50: > 1000 nM

## C=CC(=O)N1C[C@H](C)N(c2nc(OCCN3CCC(COCC(=O)N[C@H](C(=O)N4C[C@H](O)C[C@H]4C(=O)N[C@@H](C)c4ccc(-c5scnc5C)cc4)C(C)(C)C)CC3)nc3c(F)c(-c4cc(O)cc5ccccc45)c(Cl)cc23)C[C@H]1C [Compound 36, (2S,4R)-1-[(2S)-2-[2-({1-[2-({6-chloro-4-[(2S,5R)-2,5-dimethyl-4-(prop-2-enoyl)piperazin-1-yl]-8-fluoro-7-(3-hydroxynaphthalen-1-yl)quinazolin-2-yl}oxy)ethyl]piperidin-4-yl}methoxy)acetamido]-3,3-dimethylbutanoyl]-4-hydroxy-N-[(1S)-1-[4-(4-methyl-1,3-thiazol-5-yl)phenyl]ethyl]pyrrolidine-2-carboxamide]
[1]; [3]
  Dmax: 35 to 70%
[1]; [4]
  Dmax: 35 to 70%
[1]; [5]
  DC50: 100 to 1000 nM
[2]; [6]
  Dmax: < 35%
[2]; [7]
  Dmax: 35 to 70%

## C=CC(=O)N1CCN(c2nc(O[C@H](C)CN3CCC(CCC(=O)N[C@H](C(=O)N4C[C@H](O)C[C@H]4C(=O)N[C@@H](C)c4ccc(-c5scnc5C)cc4)C(C)(C)C)CC3)nc3c(F)c(-c4cc(O)cc5ccccc45)c(Cl)cc23)CC1 [Compound 37, (2S,4R)-1-[(2S)-2-(3-{1-[(2R)-2-{[6-chloro-8-fluoro-7-(3-hydroxynaphthalen-1-yl)-4-[4-(prop-2-enoyl)piperazin-1-yl]quinazolin-2-yl]oxy}propyl]piperidin-4-yl}propanamido)-3,3-dimethylbutanoyl]-4-hydroxy-N-[(1S)-1-[4-(4-methyl-1,3-thiazol-5-yl)phenyl]ethyl]pyrrolidine-2-carboxamide]
[1]; [3]
  Dmax: 35 to 70%
[1]; [5]
  DC50: 100 to 1000 nM
[2]; [6]
  Dmax: < 35%

## C=CC(=O)N1CCN(c2nc(O[C@H](C)CN3CCC(OCCOCC(=O)N[C@H](C(=O)N4C[C@H](O)C[C@H]4C(=O)N[C@@H](C)c4ccc(-c5scnc5C)cc4)C(C)(C)C)CC3)nc3c(F)c(-c4cc(O)cc5ccccc45)c(Cl)cc23)[C@@H](C)C1 [Compound 39, (2S,4R)-1-[(2S)-2-{2-[2-({1-[(2R)-2-{[6-chloro-8-fluoro-7-(3-hydroxynaphthalen-1-yl)-4-[(2S)-2-methyl-4-(prop-2-enoyl)piperazin-1-yl]quinazolin-2-yl]oxy}propyl]piperidin-4-yl}oxy)ethoxy]acetamido}-3,3-dimethylbutanoyl]-4-hydroxy-N-[(1S)-1-[4-(4-methyl-1,3-thiazol-5-yl)phenyl]ethyl]pyrrolidine-2-carboxamide]
[1]; [3]
  Dmax: 35 to 70%
[1]; [4]
  Dmax: 35 to 70%
[1]; [5]
  DC50: 100 to 1000 nM
[2]; [6]
  Dmax: < 35%
[2]; read-out: KRas^G12C-HiBiT (MiaPaCa; 0.5% DMSO) IC50, MiaPaCa-2 HiBit-KRas^G12C cells, 0.5% DMSO
  DC50: > 1000 nM

## C=CC(=O)N1CCN(c2nc(O[C@H](C)CN3CCN(C4CN(CC(=O)N[C@H](C(=O)N5C[C@H](O)C[C@H]5C(=O)N[C@@H](C)c5ccc(-c6scnc6C)cc5)C(C)(C)C)C4)CC3)nc3c(F)c(-c4cc(O)cc5ccccc45)c(Cl)cc23)CC1 [Compound 40, (2S,4R)-1-[(2S)-2-[2-(3-{4-[(2R)-2-{[6-chloro-8-fluoro-7-(3-hydroxynaphthalen-1-yl)-4-[4-(prop-2-enoyl)piperazin-1-yl]quinazolin-2-yl]oxy}propyl]piperazin-1-yl}azetidin-1-yl)acetamido]-3,3-dimethylbutanoyl]-4-hydroxy-N-[(1S)-1-[4-(4-methyl-1,3-thiazol-5-yl)phenyl]ethyl]pyrrolidine-2-carboxamide]
[1]; SW1573, read-out: KRas^G12C-HiBiT (SW1573; 0.5% DMSO) Dmax**, SW1573 HiBit-KRas^G12C, 0.5% DMSO
  Dmax: 35 to 70%
[1]; SW1573, read-out: KRas^G12C-HiBit (SW1573; 0.1% DMSO) Dmax**, SW1573 HiBit-KRas^G12C, 0.1% DMSO
  Dmax: 35 to 70%
[1]; [5]
  DC50: > 1000 nM
[2]; MIA PaCa-2, read-out: KRas^G12C-HiBiT (MiaPaCa; 0.1% DMSO) DMax, MiaPaCa-2 HiBit-KRas^G12C cells, 0.1% DMSO
  Dmax: < 35%
[2]; MIA PaCa-2, read-out: KRas^G12C-HiBiT (MiaPaCa; 0.5% DMSO) DMax, MiaPaCa-2 HiBit-KRas^G12C cells, 0.5% DMSO
  Dmax: < 35%
[2]; [8]
  DC50: 100 to 1000 nM

## C=CC(=O)N1CCN(c2nc(O[C@H](C)CN3CC(OCC(=O)N[C@H](C(=O)N4C[C@H](O)C[C@H]4C(=O)N[C@@H](C)c4ccc(-c5scnc5C)cc4)C(C)(C)C)C3)nc3c(F)c(-c4cc(O)cc5ccccc45)c(Cl)cc23)CC1 [Compound 41, (2S,4R)-1-[(2S)-2-[2-({1-[(2R)-2-{[6-chloro-8-fluoro-7-(3-hydroxynaphthalen-1-yl)-4-[4-(prop-2-enoyl)piperazin-1-yl]quinazolin-2-yl]oxy}propyl]azetidin-3-yl}oxy)acetamido]-3,3-dimethylbutanoyl]-4-hydroxy-N-[(1S)-1-[4-(4-methyl-1,3-thiazol-5-yl)phenyl]ethyl]pyrrolidine-2-carboxamide]
[1]; [3]
  Dmax: 35 to 70%
[1]; [5]
  DC50: > 1000 nM
[2]; [6]
  Dmax: < 35%
[2]; [8]
  DC50: 100 to 1000 nM

## C=CC(=O)N1CCN(c2nc(O[C@H](C)CN3CCC(OCC(=O)N[C@H](C(=O)N4C[C@H](O)C[C@H]4C(=O)N[C@@H](C)c4ccc(-c5scnc5C)cc4)C(C)(C)C)CC3)nc3c(F)c(-c4cc(O)cc5ccccc45)c(Cl)cc23)CC1 [Compound 43, (2S,4R)-1-[(2S)-2-[2-({1-[(2R)-2-{[6-chloro-8-fluoro-7-(3-hydroxynaphthalen-1-yl)-4-[4-(prop-2-enoyl)piperazin-1-yl]quinazolin-2-yl]oxy}propyl]piperidin-4-yl}oxy)acetamido]-3,3-dimethylbutanoyl]-4-hydroxy-N-[(1S)-1-[4-(4-methyl-1,3-thiazol-5-yl)phenyl]ethyl]pyrrolidine-2-carboxamide]
[1]; [3]
  Dmax: 35 to 70%
[1]; [4]
  Dmax: > 70%
[1]; [5]
  DC50: 100 to 1000 nM
[2]; [6]
  Dmax: 35 to 70%
[2]; [7]
  Dmax: 35 to 70%
